# Reference: US6428823B1, “Biologically active aqueous fraction of an extract obtained from a mangrove plant Salvadora persica L” (Council of Scientific & Industrial Research, priority 2001, dated 2002)
# System: mammalian tissues
# Test: pharmacological screening of purified compounds in mammalian tissues
# Conditions: result in words
# Excerpt: The invention further relates to methods of screening pharmacological activities of the said compounds in mammalian tissues.
# vii) testing the pure compounds by using methods of pharmacology, and
# Pharmacological Testing of Pure Compounds
row,SMILES,biological activity shown by the extract
1,C=C(C)[C@@H]1CC[C@]2(CO)CC[C@]3(C)[C@H](CC[C@@H]4[C@@]5(C)CC[C@H](O)C(C)(C)[C@@H]5CC[C@]43C)[C@@H]12 [Betulin],maintained
2,CCCCCCCCCCCCCCCC(=O)OC [Methyl palmitate],maintained
